The results in this text go back to patent US8691840B2, “N-biarylamides” (Bayer Intellectual Property GmbH, priority 2003, dated 2014).

The target of this assay is α7 nAChR (Rattus norvegicus (Rat), UniProt Q05941). As to the kind of experiment: [3H]-methyllycaconitine binding assay, rat brain membranes. Conditions: inhibition of [3H]-methyllycaconitine binding to rat brain membranes; Ki=IC50/(1+L/KD). The method, then:
1. Determination of the Affinity of Test Substances for α7 nAChR by Inhibition of [^3H]-methyllycaconitine Binding to Rat Brain Membranes
The [^3H]-methyllycaconitine binding assay is a modification of the method described by Davies et al. (Neuropharmacol. 1999, 38, 679-690).
Rat brain tissue (hippocampus or whole brain) is homogenized in homogenization buffer (10% w/v) (0.32 M sucrose, 1 mM EDTA, 0.1 mM phenylmethylsulfonyl fluoride (PMSF), 0.01% (w/v) NaN3, pH 7.4, 4° C.) at 600 rpm in a glass homogenizer. The homogenate is centrifuged (1000×g, 4° C., 10 min) and the supernatant is removed. The pellet is resuspended (20% w/v) and the suspension is centrifuged (1000×g, 4° C., 10 min) The two supernatants are combined and centrifuged (15 000×g, 4° C., 30 min). This pellet is referred to as the P2 fraction.
The P2 pellet is washed twice with binding buffer (50 mM Tris-HCl, 1 mM MgCl2, 120 mM NaCl, 5 mM KCl, 2 mM CaCl2, pH 7.4), and centrifuged (15 000×g, 4° C., 30 min).
The P2 membranes are resuspended in binding buffer and incubated in a volume of 250 μl (amount of membrane protein 0.1-0.5 mg) in the presence of 1-5 nM [^3H]-methyllycaconitine, 0.1% (w/v) BSA (bovine serum albumin) and various concentrations of the test substance at 21° C. for 2.5 h. The non-specific binding is determined by incubation in the presence of 1 μM […]-bungarotoxin or 100 μM nicotine or 10 μM MLA (methyllycaconitine).
The incubation is stopped by adding 4 ml of PBS (20 mM Na2HPO4, 5 mM KH2PO4, 150 mM NaCl, pH 7.4, 4° C.) and filtering through type A/E glass fiber filters (Gelman Sciences) which have previously been placed in 0.3% (v/v) polyethyleneimine (PEI) for 3 h. The filters are washed twice with 4 ml of PBS (4° C.), and the bound radioactivity is determined by scintillation measurement. All the assays are carried out in triplicate. The dissociation constant Ki of the test substance was determined from the IC50 of the compounds (concentration of the test substance at which 50% of the ligand bound to the receptor are displaced), the dissociation constant KD and the concentration L of [^3H]methyllycaconitine (Ki=IC50/(1+L/KD)).

Counter-ions that a name gives are not always drawn.

Chain of α7 nAChR (Q05941 23-502 limits assumed): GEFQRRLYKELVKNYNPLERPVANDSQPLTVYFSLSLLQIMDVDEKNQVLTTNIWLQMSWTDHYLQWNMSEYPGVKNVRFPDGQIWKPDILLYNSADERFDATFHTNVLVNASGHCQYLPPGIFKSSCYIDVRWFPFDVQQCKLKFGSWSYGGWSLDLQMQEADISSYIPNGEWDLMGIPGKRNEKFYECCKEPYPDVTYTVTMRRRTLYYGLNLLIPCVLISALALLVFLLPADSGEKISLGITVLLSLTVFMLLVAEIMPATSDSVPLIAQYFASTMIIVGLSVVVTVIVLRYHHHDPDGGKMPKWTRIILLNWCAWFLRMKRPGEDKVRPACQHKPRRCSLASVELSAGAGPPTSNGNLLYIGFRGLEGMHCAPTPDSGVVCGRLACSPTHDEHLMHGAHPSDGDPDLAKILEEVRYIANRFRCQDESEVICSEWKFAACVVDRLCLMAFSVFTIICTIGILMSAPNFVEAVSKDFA

A word on the Ki: it is a measure of affinity in units of concentration, obtained from inhibition or displacement. Low readings indicate tighter binding, high ones weaker binding. For the compound `CS(=O)(=O)Nc1ccc(-c2ccc(NC(=O)[C@H]3CN4CCC3CC4)cc2)cc1` [Example 2, (3R)-N-{4′-[(Methylsulfonyl)amino]biphenyl-4-yl}quinuclidine-3-carboxamide hydrochloride], the Ki is 2 nM.
Under `O=C(Nc1ccc(-c2ccc(NS(=O)(=O)c3ccccc3)cc2)cc1)[C@H]1CN2CCC1CC2` [Example 5, (3R)—N-{4′-[(Phenylsulfonyl)amino]biphenyl-4-yl}quinuclidine-3-carboxamide hydrochloride] stands less than 1 nM.
In turn, `NS(=O)(=O)c1ccc(-c2ccc(NC(=O)[C@H]3CN4CCC3CC4)cc2)cc1` [Example 7, (3R)—N-[4′-(Aminosulfonyl)biphenyl-4-yl]quinuclidine-3-carboxamide hydrochloride] displayed an inhibition constant (Ki) of less than 1 nM.
As for `O=C(Nc1ccc(-c2ccc(NC(=O)[C@H]3CN4CCC3CC4)cc2)cc1)c1cccc(F)c1` [Example 15, (3R)—N-{4′-[(3-Fluorobenzoyl)amino]biphenyl-4-yl}quinuclidine-3-carboxamide hydrochloride], the affinity, expressed as Ki, was 27 nM.
The compound `O=C(Nc1ccc(-c2ccc(NC(=O)[C@H]3CN4CCC3CC4)cc2)cc1)NC1CCCC1` [Example 11, (3R)—N-(4′-{[(Cyclopentylamino)carbonyl]amino}biphenyl-4-yl)quinuclidine-3-carboxamide hydrochloride] registered a Ki of 16 nM.
